Measured values as given in patent US20170304228A1, “NEW INDICATION OF CINACALCET HCL PHARMACEUTICAL COMPOSITION FOR TREATING CANCER” (LAUNX BIOMEDICAL CO., LTD., priority 2014, published 2017).
Where a name gives a salt, the structure may show the parent alone. Read-outs that look alike come from different tables or passages of the source.

Tests used:
Assay type in all cases: cell-based
HeLa = experiment: Cell viability analysis (WST-1), HeLa; conditions: Homo sapiens, read-out: survival rate (viability) of cells
Protocol: (§1) The cell numbers were counted and reseed as 2×10^6 in culture plate/flask. Then, the culture medium were added to a volume of 10 ml, and the cells were cultured for 2-3 days. Then, the cells were suspended for loading into 96-well plates. The number of cells was 3000 and the volume of the culture medium was 100 μl each well.
(§2) Removing the original culture medium from 96-well plate. Then add 100 μl of commercially drug at a concentration of 10 μM per well. After 72 hours, add the diluted WST-1 reagent to the well with 100 μl/well, and the diluted WST-1 reagent was acquired from the dilution of 9:1 medium and WST-1 stock reagent. Finally, the total volume of each well was 200 μl/well. Culture the 96-well plate at 37° C. for 30 to 90 minutes. Detecting and calculate the survival rate of each cancer cells with an ELISA reader at OD450 nm. The lower viability of cancer cells represents better inhibition effect via the Cinacalcet HCl drug. Otherwise, the higher viability of cancer cells represents worse inhibition effect via the Cinacalcet HCl drug.
This inhibition test of Cinacalcet HCl on abdominal-related cancer cells were using bladder cancer cell line TSGH and T24 (Table 3), cervical cancer cell lines HeLa and C-33A (Table 4), renal cancer cell line 786-O (Table 5). The inhibitory tests of Cinacalcet HCl were performed 4 times for each cell lines and then the average value of the inhibitory tests was calculated.

LNCap = experiment: Cell viability analysis (WST-1), LNCap; conditions: Homo sapiens, 72 hours, Average of tests, read-out: survival rate (viability) of cells
Protocol: as §1
as §2, with “Otherwise, the higher viability of cancer cells represents worse inhibition effect via the Cinacalcet HCl drug.” left out
This inhibition test of Cinacalcet HCl on endocrine-related cancer cells were using prostate cancer cell lines PC-3 and LNCap (Table 6), breast cancer cell lines MCF7 and MDA-MB-231 (Table 7), and ovarian cancer cell lines NIH-OVCAR-3 and TOV-21G (Table 8). The inhibitory tests of Cinacalcet HCl were performed 4 times for each cell lines and then the average value of the inhibitory tests was calculated.

AGS = experiment: Cell viability analysis (WST-1), AGS; conditions: Homo sapiens, read-out: survival rate (viability) of cells
Protocol: as §1, §2
(§3) This inhibition test of Cinacalcet HCl on gastrointestinal tract-related cancer cells were using gastric cancer cell lines AGS and MKN-45 (Table 9), hepatic cancer cell lines HepG2 and Hep3B (Table 10), colorectal cancer cell lines HCT116-wt and LoVo (Table 11), pancreatic cancer cell line AsPC-1 and BxPC-3(Table 12), tongue cancer cell line SAS (Table 13). The inhibitory tests of Cinacalcet HCl were performed 4 times for each cell lines and then the average value of the inhibitory tests was calculated.

HepG2 = experiment: Cell viability analysis (WST-1), HepG2; conditions: Homo sapiens, read-out: survival rate (viability) of cells
Protocol: as §1, §2, §3

Hep3B = experiment: Cell viability analysis (WST-1), Hep3B; conditions: Homo sapiens, read-out: survival rate (viability) of cells
Protocol: as §1, §2, §3

BxPC-3 = experiment: Cell viability analysis (WST-1), BxPC-3; conditions: Homo sapiens, read-out: survival rate (viability) of cells
Protocol: as §1, §2, §3

[1] = Cell viability analysis (WST-1), normal kidney cell line HEK293; conditions: human, HEK293 cells (normal kidney cell line)
Protocol: as §1
as §2, with “Otherwise, the higher viability of cancer cells represents worse inhibition effect via the Cinacalcet HCl drug.” left out
(§4) This inhibition test of Cinacalcet HCl on normal cells were using normal kidney cell line HEK293 (Table 16), normal pulmonary epithelial cell lines […] BEAS-2B (Table 17). The inhibitory tests of Cinacalcet HCl were performed 4 times for each cell lines and then the average value of the inhibitory tests was calculated The results were shown in Tables 16 and Tables 17.

lung cancer cells = experiment: Summary of cell viability, lung cancer cells; conditions: 72 hours, read-out: Inhibitory effect
Protocol: as §1, §2
Cinacalcet HCl is having different inhibitory effect on different tumor cell type even in the same cancer. […] (FIG. 1)

normal cells = experiment: Toxicity to normal cells
Protocol: as §2, §4

Compound `C[C@@H](NCCCc1cccc(C(F)(F)F)c1)c1cccc2ccccc12` [Cinacalcet HCl, Cinacalcet hydrochloride] has a viability at 10 µM (HeLa; 72 h, average of tests) of 111%, a viability at 10 µM (HeLa; 72 hours, test 0524-10 min) of 110% and a viability at 10 µM (HeLa; 72 hours, test 0526-10 min) of 119%. It also gave a viability at 10 µM (HeLa; 72 hours, test 0529-10 min) of 104%, a viability at 10 µM (HeLa; 72 hours, test 0531-10 min) of 113% and a viability at 10 µM (LNCap) of 52.6%. The viability at 10 µM (AGS; 72 h, average of tests) was 28.3%, the viability at 10 µM (AGS; 72 hours, test 0510-10 min) was 26.6% and the viability at 10 µM (AGS; 72 hours, test 0512-10 min) was 20%. The viability at 10 µM (AGS; 72 hours, test 0515-10 min) was 52.3%, the viability at 10 µM (AGS; 72 hours, test 0517-10 min) was 14.5% and the viability at 10 µM (HepG2; HepG2, 10 μM, 72 hours, test 0524-20 min) was 106%. It also gave a viability at 10 µM (HepG2; HepG2, 10 μM, 72 hours, test 0526-20 min) of 133%, a viability at 10 µM (HepG2; HepG2, 10 μM, 72 hours, test 0529-20 min) of 116% and a viability at 10 µM (HepG2; HepG2, 10 μM, 72 hours, test 0531-20 min) of 89.5%. For the same compound, the viability at 10 µM (HepG2; HepG2, 72 h, 10 μM, average of tests) was 111%, the viability at 10 µM (Hep3B; 72 h, average of tests) was 134% and the viability at 10 µM (Hep3B; 72 hours, test 0612-20 min) was 143%. It also gave a viability at 10 µM (Hep3B; 72 hours, test 0614-20 min) of 125%, a viability at 10 µM (Hep3B; 72 hours, test 0616-20 min) of 152% and a viability at 10 µM (Hep3B; 72 hours, test 0619-20 min) of 117%. It also gave a viability at 10 µM (BxPC-3; BXPC-3, 10 μM, 72 hours, test 3-4-30 min) of 76.2%, a viability at 10 µM (BxPC-3; BXPC-3, 10 μM, 72 hours, test 3-7-3-30 min) of 64.6% and a viability at 10 µM (BxPC-3; BXPC-3, 10 μM, 72 hours, test 3-7-4-30 min) of 78.8%. It also gave a viability at 10 µM (BxPC-3; BXPC-3, 10 μM, 72 hours, test 3-7-7-30 min) of 100%, a viability at 10 µM (BxPC-3; BXPC-3, 72 h, 10 μM, Average of tests) of 79.9% and a viability at 72 h, 10 µM ([1]; average of tests, read-out: survival rate (viability) of cells) of 114%. For the same compound, the viability at 72 h, 10 µM ([1]; summary, kidney cell lines, read-out: Inhibitory effect) was 114%, the viability at 10 µM (lung cancer cells) was 83.1% and the “toxicity to normal cells” value (normal cells) was “no toxicity or had little toxicity”.
